Data: patent US11142515B2, “Pyrazolyl-ureas as kinase inhibitors” (RESPIVERT LIMITED, priority 2014, dated 2021)

Columns and labels:
[1] = test system: CXCL1 (KC) in BALF; assay: Cigarette smoke model: CXCL1 (KC) in BALF; type: in vivo, A/J mice; conditions: mice; for CXCL1 in BALF / CXCL1 in BALF, % inhibition: tobacco smoke
Experimental: A/J mice (males, 5 weeks old) were exposed to cigarette smoke (4% cigarette smoke, diluted with air) for 30 min/day for 11 days using a Tobacco Smoke Inhalation Experiment System for small animals (Model SIS-CS; Sibata Scientific Technology, Tokyo, Japan). Test substances were administered intra-nasally (35 μL of solution in 10% DMSO/PBS) once daily for 3 days after the final cigarette smoke exposure. At 12 h after the last […], each of the animals was anesthetized, the trachea cannulated and bronchoalveolar lavage fluid (BALF) was collected. The numbers of alveolar macrophages and neutrophils were determined by FACS analysis (EPICS® ALTRA II, Beckman Coulter, Inc., Fullerton, Calif., USA) using anti-mouse MOMA2 antibody (macrophage) or anti-mouse 7/4 antibody (neutrophil). BALF was centrifuged and the supernatant was collected. The level of keratinocyte chemoattractant (KC; CXCL1) in BALF was quantitated using a Quantikine® mouse KC ELISA kit (R&D systems, Inc., Minneapolis, Minn., USA).

[2] = test system: neutrophil accumulation in BALF; assay: LPS-induced neutrophil accumulation in mice; type: in vivo, Balb/c mice; conditions: mice; for Neutrophil numbers in BALF / Neutrophil numbers in BALF, % inhibition: 0.2 mg/mL, LPS
Experimental: Non-fasted Balb/c mice were […] by the intra tracheal route with either vehicle, or the test substance at the indicated times (within the range 2-8 h) before stimulation of the inflammatory response by application of an LPS challenge. At T=0, mice were placed into an exposure chamber and exposed to LPS (7.0 mL, 0.5 mg/mL solution in PBS for 30 min). After a further 8 h the animals were anesthetized, their tracheas cannulated and BALF extracted by infusing and then withdrawing from their lungs 1.0 mL of PBS via the tracheal catheter. Total and differential white cell counts in the BALF samples were measured using a Neubaur haemocytometer. Cytospin smears of the BALF samples were prepared by centrifugation at 200 rpm for 5 min at RT and stained using a DiffQuik stain system (Dade Behring). Cells were counted using oil immersion microscopy. Data for neutrophil numbers in BAL are shown as mean±S.E.M. (standard error of the mean). The percentage inhibition of neutrophil accumulation was calculated for each treatment relative to vehicle treatment.

[3] = test system: sputum macrophages from COPD patients; assay: Cytokine production in LPS-treated sputum macrophages from COPD patients; type: cell-based, human
Experimental: Patients with COPD inhaled a nebulised solution of 3% (w/v) hypertonic saline using an ultrasonic nebuliser (Devilbiss, Carthage, Mo.) with tidal breathing for 5 min. This procedure was repeated a maximum of three times until enough sputum was obtained. The sputum samples were homogenized and mixed vigorously using a vortex mixer in 0.02% v/v dithiothreitol (DTT) solution. The samples were re-suspended in PBS (40 mL) followed by centrifugation at 1500 rpm at 4° C. for 10 min to obtain sputum cell pellets. The pellets were washed with PBS (40 mL). The sputum cells were then re-suspended in 4 mL macrophage serum-free medium (macrophage-SFM, Life technologies, containing 20 U/mL penicillin, 0.02 mg/mL streptomycin and 5 μg/mL amphotericin B) and seeded on high bound 96-well plate, followed by incubation for 1 h at 37° C. and at 5% CO2 to allow the macrophages to attach to the bottom of the plate. The cells on the plate were washed with fresh macrophage-SFM (200 μL/well) to remove neutrophils and other contaminated cells. The adherent cells (mainly sputum macrophages) on the plate were used for further analysis. Sputum inductions were conducted in Quintiles Drug Research Unit at Guys Hospital and ethics approval and written informed consent was obtained by Quintiles.
Where appropriate, 1 μL of a solution containing either the test compound or reference article at the stated concentrations (either 0.1 μg/mL, 0.01 μg/mL, or 0.001 μg/mL) or alternatively 1 μL of DMSO as the vehicle control was added to each well (200 μL in media) and the cells were incubated for 2 h. The cells were stimulated with LPS solution (50 μL, final concentration: 1 μg/mL) and incubated for 18 h at 37° C. and 5% CO2. The supernatant was then collected and kept at −80° C. Suitable luminex kits were used to measure the selected analytes. After thawing the supernatant, the magnetic antibody beads were multiplexed and incubated in a 96-well plate with standard, background solution or the appropriate volume of sample overnight with shaking at 4° C. After washing twice with 200 μL of wash buffer provided by the kit per well using a magnetic plate washer, the beads were incubated for 1 h at RT with the biotin conjugated antibody solution provided by the kit with shaking. Streptavidin solution was added for 30 min with shaking at RT. After washing with 200 μL wash buffer per well, the beads were resuspended in sheath fluid (150 μL) and analyzed immediately. The level of each analyte in the supernatant was calculated using Xcel Fit software with a 4 or 5-parameter equation using each standard curve. The inhibitions of each cytokine production were calculated at each concentration by comparison with vehicle control.

[4] = test system: PBMCs (mitosis); assay: Cell mitosis assay in PHA-treated PBMCs; type: cell-based, human
Experimental: Peripheral blood mononucleocytes (PBMCs) from healthy subjects were separated from whole blood (Quintiles, London, UK) using a density gradient (Histopaquee-1077, Sigma-Aldrich, Poole, UK). The PBMCs (3 million cells per sample) were subsequently treated with 2% PHA (Sigma-Aldrich, Poole, UK) for 48 h, followed by a 20 h exposure to varying concentrations of test compounds. At 2 h before collection, PBMCs were treated with demecolcine (0.1 μg/mL; Life Technologies, Paisley, UK,) to arrest cells in metaphase.

IC50 ([3]; Homo sapiens, Macrophage, IL-6, sputum macrophages from COPD patients): 28 nM
impact on cell division (mitosis) compared with Reference Compound [4]: markedly less activity
SMILES: Cc1ccc(-n2nc(C(C)(C)C)cc2NC(=O)Nc2ccc(OCc3ccnc(Nc4cnccn4)c3)c3ccccc23)cc1 [Example 1, 1-(3-(tert-Butyl)-1-(p-tolyl)-1H-pyrazol-5-yl)-3-(4-((2-(pyrazin-2-ylamino)pyridin-4-yl)methoxy)naphthalen-1-yl)urea]
CXCL1 in BALF ([1]; 0.07 μg/mouse): 14.47 pg/mL
CXCL1 in BALF, % inhibition ([1]; 0.07 μg/mouse): 14.6%
CXCL1 in BALF ([1]; 0.7 μg/mouse): 12.49 pg/mL
CXCL1 in BALF, % inhibition ([1]; 0.7 μg/mouse): 34.9%
CXCL1 in BALF ([1]; 7 μg/mouse): 9.03 pg/mL
CXCL1 in BALF, % inhibition ([1]; 7 μg/mouse): 70.3%
tobacco smoke induced CXCL1 (KC) production in BALF (in words) [1]: inhibited
Neutrophil numbers in BALF ([2]; pre-dose time 2 hr): 492000 mL⁻¹
Neutrophil numbers in BALF, % inhibition ([2]; pre-dose time 2 hr): 67.8%
Neutrophil numbers in BALF ([2]; pre-dose time 8 hr): 759000 mL⁻¹
Neutrophil numbers in BALF, % inhibition ([2]; pre-dose time 8 hr): 50.3%
LPS-induced neutrophil accumulation (in words) [2]: inhibition
duration of action (time course experiment) [2]: long duration of action
inhibition of pro-inflammatory cytokine production in sputum macrophage compared with fluticasone propionate [3]: higher efficacy
inhibition at 0.1 µg/mL ([3]; Homo sapiens, Macrophage, read-out: E-max (maximum inhibition), IL-6 production in LPS-treated sputum macrophages): 60%
inhibition at 5 µg/mL ([4]; Homo sapiens, PBMC, 5 μg/mL, PBMC, Table 5A, read-out: Mitosis Assay % Inhibition at 5 μg/mL in PBMC Cells): 29.9%
